These results are taken from publication PMC5841300, “Magnolol restores the activity of meropenem against NDM-1-producing Escherichia coli by inhibiting the activity of metallo-beta-lactamase” (Cell Death Discovery, 2018).

One may read the Kd as the concentration at which binding is half-saturated. What is called IC50 is the concentration needed to halve the response being measured.

Molecules are shown by their SMILES.

Assay [1] concerns the target T1, New Delhi metallo-β-lactamase-1 (NDM-1) (Escherichia coli, UniProt E5KIY2, G219A).
T1 construct: gene blaNDM-1; NDM-1 without the signal peptide, amino-terminal histidine tag
In words: fluorescence quenching (binding constant KA).

Assay [2] has as its target T2, New Delhi metallo-β-lactamase-1 (NDM-1) (Escherichia coli, UniProt E5KIY2).
T2 construct: gene blaNDM-1; NDM-1 without the signal peptide, amino-terminal histidine tag
In words: purified recombinant enzyme, nitrocefin hydrolysis assay; also fluorescence quenching, KA […] ([…] L/mol). It is filed as biochemical.

For assay [3], the target named is T3, New Delhi metallo-β-lactamase-1 (NDM-1) (Escherichia coli, UniProt E5KIY2, K211A).
T3 construct: gene blaNDM-1; NDM-1 without the signal peptide, amino-terminal histidine tag
The experiment in a line: fluorescence quenching (binding constant KA).

As for `C=CCc1ccc(O)c(-c2cc(CC=C)ccc2O)c1` [magnolol], the Kd in assay [1] is 18.2 µM; in assay [3] it was 20.8 µM. Moreover, the IC50 in assay [2] was 24.3 µM.
